Measured values published in BindingDB's records for doi:10.1016/0006-2952(86)90769-0 (Wyeth Laboratories, 1986).

How the values were obtained:
[1] = biological target: T1, Alpha-2C adrenergic receptor (Rattus norvegicus, UniProt P22086)
T1 sequence (P22086 whole entry): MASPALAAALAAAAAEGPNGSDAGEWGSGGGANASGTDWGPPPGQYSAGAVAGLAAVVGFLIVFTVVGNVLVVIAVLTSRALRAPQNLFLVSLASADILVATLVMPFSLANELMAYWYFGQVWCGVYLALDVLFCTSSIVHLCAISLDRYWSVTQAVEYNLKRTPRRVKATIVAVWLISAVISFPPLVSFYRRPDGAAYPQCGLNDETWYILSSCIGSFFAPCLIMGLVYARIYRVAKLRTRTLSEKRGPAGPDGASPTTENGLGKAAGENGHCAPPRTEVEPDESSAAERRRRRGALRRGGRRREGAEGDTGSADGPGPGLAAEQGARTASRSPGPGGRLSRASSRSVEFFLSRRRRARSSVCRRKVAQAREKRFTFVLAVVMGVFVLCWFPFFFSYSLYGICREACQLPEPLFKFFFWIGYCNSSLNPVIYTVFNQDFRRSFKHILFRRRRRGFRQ

[2] = biological target: T2, Muscarinic acetylcholine receptor M2 (Rattus norvegicus, UniProt P10980)
T2 sequence (P10980 whole entry): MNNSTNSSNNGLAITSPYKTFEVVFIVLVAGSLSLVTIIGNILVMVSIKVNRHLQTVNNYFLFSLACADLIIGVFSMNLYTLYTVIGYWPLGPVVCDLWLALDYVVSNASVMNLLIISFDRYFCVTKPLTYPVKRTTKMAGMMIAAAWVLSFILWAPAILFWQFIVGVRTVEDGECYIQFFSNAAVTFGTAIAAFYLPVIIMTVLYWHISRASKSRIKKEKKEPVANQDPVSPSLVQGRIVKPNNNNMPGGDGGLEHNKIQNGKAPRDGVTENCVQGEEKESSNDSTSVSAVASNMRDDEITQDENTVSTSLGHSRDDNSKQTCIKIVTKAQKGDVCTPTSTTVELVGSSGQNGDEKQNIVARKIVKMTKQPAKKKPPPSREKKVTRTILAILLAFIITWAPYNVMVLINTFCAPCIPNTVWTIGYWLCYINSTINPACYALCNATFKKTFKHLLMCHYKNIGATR

Histamine H1 receptor = Histamine H1 receptor (Rattus norvegicus, UniProt P31390)
Sequence of Histamine H1 receptor (P31390 whole entry): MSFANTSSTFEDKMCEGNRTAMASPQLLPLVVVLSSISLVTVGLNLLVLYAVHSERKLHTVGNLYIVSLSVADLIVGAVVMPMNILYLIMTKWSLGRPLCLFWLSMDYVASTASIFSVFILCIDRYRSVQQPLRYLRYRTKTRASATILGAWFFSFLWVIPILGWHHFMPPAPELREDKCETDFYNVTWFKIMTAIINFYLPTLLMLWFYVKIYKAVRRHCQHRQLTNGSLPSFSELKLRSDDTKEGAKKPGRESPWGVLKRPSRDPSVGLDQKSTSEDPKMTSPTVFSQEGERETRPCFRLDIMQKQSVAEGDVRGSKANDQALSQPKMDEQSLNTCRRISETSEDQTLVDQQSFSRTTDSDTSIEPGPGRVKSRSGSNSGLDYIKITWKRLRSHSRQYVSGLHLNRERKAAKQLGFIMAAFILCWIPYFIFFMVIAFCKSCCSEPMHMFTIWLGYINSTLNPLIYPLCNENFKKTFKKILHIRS

SMILES	Ki [1] [µM]	Ki [2] [µM]	Ki (Histamine H1 receptor) [µM]
COc1ccc(C(CN(C)C)C2(O)CCCCC2)cc1 (stereo not given) [NSC_62923]	> 10	> 10	> 10
CNCCCN1c2ccccc2CCc2ccccc21 [Desmethylimipramine]	> 10	0.05	
